The values below come from patent US20260265222A1, “1H-PYRROLE-2-AMIDE DERIVATIVE, PHARMACEUTICAL COMPOSITION AND METHOD FOR TREATING AND/OR PREVENTING YTHDC1-RELATED DISEASES” (priority 2023, published 2026).

The target of experiment [1] is T1, GST-YTHDC1 (345-509) protein (Homo sapiens, UniProt Q96MU7).
T1 construct: GST-YTHDC1 (345-509) protein
The experiment can be described thus: Fluorescence polarization-based in vitro enzyme-level test against YTHDC1. It is filed as binding. The note with it: 30 nM GST-YTHDC1 (345-509), FAM-labeled m6A-modified single-stranded oligonucleotide, 18° C., 4 hours; read-out: IC50 (Inhibitory Activity against YTHDC1). In general terms: Polarisation of emitted light reports the rotation of a fluorescent probe.

Experiment [2] deals with leukaemia cell MOLM-13. Briefly: Cell cycle detection by flow cytometry (PI). The class given is cell-based. The note with it: MOLM-13, 0.5-2 μM, 48 h (FIG. 1b). As for the experimental part:
To detect the effect of the small molecule YL-5092 on the cell cycle of leukaemia cell MOLM-13, MOLM-13 cells were evenly seeded in 12-well plates and treated with different concentration gradients of YL-5092 (0.5-2 μM) for 48 h. After collection, the cells were washed once with ice-cold PBS and fixed with 70% ice-cold ethanol for 12 h. Before analysis on the flow cytometer, the cells were washed twice with ice-cold PBS and then incubated with PI reagent for 30 min, protected from light.
(In general: Flow cytometry measures light scatter and fluorescence of single cells or particles in a stream.)

Experiment [3] has as its system leukaemia cells MOLM-13, MV4-11, THP-1, and U937. The experiment can be described thus: Apoptosis detection by flow cytometry (APC-Annexin V, 7-AAD). It is filed as cell-based. The note with it: MOLM-13, MV4-11, THP-1, U937; 0.5-2 μM, 5 days (FIG. 1d). As to the method:
To detect the effect of the small molecule YL-5092 on the apoptosis of leukaemia cells MOLM-13, MV4-11, THP-1, and U937, MOLM-13, MV4-11, THP-1, and U937 cells were evenly seeded in 12-well plates and treated them with different concentration gradients of YL-5092 (0.5-2 μM) for 5 days. After collection, the cells were washed twice with ice-cold PBS, and 5 μL of APC-Annexin V antibody and 5 μL of 7-AAD were added for incubation for 15-30 min, protected from light, and finally analyzed on the flow cytometer.

Experiment [4] has as its system leukaemia cell MOLM-13. Briefly: Differentiation detection by flow cytometry (PE-CD11b, APC-CD14). The class given is cell-based. As to conditions: MOLM-13, 0.5-2 μM, 5 days (FIG. 1c). As to the method: To detect the effect of the small molecule YL-5092 on the differentiation of leukaemia cell MOLM-13, MOLM-13 cells were evenly seeded in 12-well plates and treated them with different concentration gradients of YL-5092 (0.5-2 μM) for 5 days. After collection, the cells were washed twice with ice-cold PBS, and 2 μL of PE-CD11b antibody and 2 μL of APC-CD14 antibody were added for incubation for 30 min, protected from light, then washed twice with ice-cold PBS, and finally analyzed on the flow cytometer.

In experiment [5] the test system is AML cells (MV4-11, HL-60, MOLM-13, THP-1, KG-1, U937, OCI-AML3). Briefly: Detection of cell proliferation by MTT assay. It is filed as cell-based. As to conditions: 72 h, range over the cell lines (FIG. 1a), read-out: IC50 values, inhibition of proliferation of AML cells. As for the experimental part:
AML cells (MV4-11, HL-60, MOLM-13, THP-1, KG-1, U937, and OCI-AML3) were seeded in 96-well plates at 10,000-15,000 cells per well, and then a series of concentration gradients of YL-5092 (i.e., Compound 29) were added for culture for 72 h. 20 μL of MTT solution ([…]) was added to each well and incubated for 2-4 hours, followed by the addition of 50 μL of 20% SDS solution and incubation overnight to dissolve the formazan. The absorbance value was then read at 570 nm on a microplate reader, and the IC50 value of YL-5092 was calculated using GraphPad Prism 8.0.
Background: Tetrazolium dyes change colour on reduction, which living cells bring about.

pIC50: −log10 of the molar value. Where only a bound is given, the exact number is not on record here.

Consider `O=C(Nc1ccc(-c2cncs2)cc1)c1cc(C(=O)c2ccccc2C(F)(F)F)c[nH]1` [Compound 29], for which the pIC50 is 8.15 in experiment [1] and 5.54 to 6.55 in experiment [5]. In addition, the “AML cell cycle arrest” value in the experiment on leukaemia cell MOLM-13 [2] is on record as “significantly induce AML cell cycle arrest in the G0/G1 phase”. The AML cell apoptosis result in experiment [3] is recorded as “apoptosis”. Moreover, the AML cell differentiation entry with leukaemia cell MOLM-13 [4] was “induce AML cell differentiation”.
Turning to `O=C(Nc1ccc(-c2cnco2)cc1)c1cc(C(=O)c2ccccc2C2=CCCC2)c[nH]1` [Compound 142], in experiment [1], the pIC50 was 7.60.
Consider `O=C(Nc1ccc(-c2cncs2)cc1)c1cc2c(-c3ccccc3C(F)(F)F)nccc2[nH]1` [Compound 41], for which the pIC50 in experiment [1] is 6.72.
`O=C(Nc1cccnc1)c1cc(C(=O)c2ccccc2Cl)c[nH]1` [Compound 8]: the pIC50 in experiment [1] was 5.55.
In the case of `O=C(Nc1ccc2c(c1)OCc1ccccc1-2)c1cc(C(=O)c2ccccc2C(F)(F)F)c[nH]1` [Compound 83], the pIC50 in experiment [1] was 7.01.
Take `O=C(Nc1cccnc1)c1cc(C(=O)c2ccccc2C(F)(F)F)c[nH]1` [Compound 2]: in experiment [1], the pIC50 is 6.10.
For the molecule `O=C(Nc1ccc(-c2cncs2)cc1)c1cc2c(-c3ccccc3C3CC3)nccc2[nH]1` [Compound 66], the pIC50 in experiment [1] was less than 4.30.
The same measure, in the same setting: the figure for `CCN(CCNc1ncc(-c2ccc(NC(=O)c3cc(C(=O)c4ccccc4C(F)(F)F)c[nH]3)cc2)o1)C(=O)OC(C)(C)C` [Compound 76] is 5.30.
In the case of `COc1cc(NC(=O)c2cc(C(=O)c3ccccc3C(F)(F)F)c[nH]2)ccc1-c1cnco1` [Compound 90], the pIC50 in experiment [1] was 8.43.
As to `CC1CCN(c2ccccc2C(=O)c2c[nH]c(C(=O)Nc3ccc(-c4cnco4)cc3)c2)CC1` [Compound 125], the pIC50 in experiment [1] is 7.89.
As to `CN(C)CCOc1cc(NC(=O)c2cc(C(=O)c3ccccc3C(F)(F)F)c[nH]2)ccc1-c1cnco1` [Compound 101], the pIC50 in experiment [1] was 7.37.
For `O=C(Nc1ccc(-c2ocnc2CO)cc1)c1cc(C(=O)c2ccccc2C(F)(F)F)c[nH]1` [Compound 94], the pIC50 in experiment [1] was 6.95.
Same read-out and setting: the figure for `COC(=O)c1cc(C(F)(F)F)ccc1NC(=O)c1cc(C(=O)c2ccccc2C(F)(F)F)c[nH]1` [Compound 117] is not above 4.30.
For `O=C(Nc1ccc(-c2cnco2)cc1)c1cc(C(=O)c2ccccc2N2CC3(CCC3)C2)c[nH]1` [Compound 144], the pIC50 in experiment [1] is 7.32.
With `O=C(Nc1ccc(-c2cnc[nH]2)cc1)c1cc(C(=O)c2ccccc2C(F)(F)F)c[nH]1` [Compound 27], in experiment [1], the pIC50 was 7.64.
In the case of `CN1CCN(c2ccccc2C(=O)c2c[nH]c(C(=O)Nc3ccc(-c4cnco4)cc3)c2)CC1` [Compound 139], in experiment [1], the pIC50 is 5.98.
Consider `CC(C)(C)OC(=O)n1cc(-c2ccc(NC(=O)c3cc(C(=O)c4ccccc4C(F)(F)F)c[nH]3)cc2)c2ccccc21` [Compound 129], for which the pIC50 in experiment [1] was 4.51.
Consider `CCSc1ccccc1-c1nccc2[nH]c(C(=O)Nc3ccc(-c4cncs4)cc3)cc12` [Compound 68], for which the pIC50 in experiment [1] is 5.78.
Take `O=C(Nc1ccc(-c2cnco2)c(F)c1)c1cc(C(=O)c2ccccc2C(F)(F)F)c[nH]1` [Compound 93]: the pIC50 in experiment [1] is 8.05.
Still for that read-out and setting: the figure for `O=C(Nc1ccc(-c2ccoc2)cc1)c1cc(C(=O)c2ccccc2C(F)(F)F)c[nH]1` [Compound 25] is 7.44.
Consider `CS(=O)(=O)c1ccccc1-c1nccc2[nH]c(C(=O)Nc3ccc(-c4ccccc4)cc3)cc12` [Compound 72], for which the pIC50 in experiment [1] is 4.44.
On to `O=C(Nc1ccccc1)c1ccc(NC(=O)c2cc(C(=O)c3ccccc3C(F)(F)F)c[nH]2)cc1` [Compound 111], for which the pIC50 in experiment [1] is 6.44.
Turning to `O=C(Nc1ccc(-c2cncs2)cc1)c1cc2c(-c3ccccc3CO)nccc2[nH]1` [Compound 45], in experiment [1], the pIC50 was less than 4.30.
Consider `O=C(Nc1ccc(-c2cnc(N3CCN(S(=O)(=O)Cc4ccccc4)CC3)o2)cc1)c1cc(C(=O)C2C=CC=CC2C(F)(F)F)c[nH]1` (stereo not drawn) [Compound 89], for which the pIC50 in experiment [1] is less than 4.30.
With `O=C(Nc1cccc(F)c1)c1cc(C(=O)c2ccccc2C(F)(F)F)c[nH]1` [Compound 14], the pIC50 in experiment [1] was 6.61.
As for `Cn1nc(C(F)(F)F)cc1-c1ccc(NC(=O)c2cc(C(=O)c3ccccc3C(F)(F)F)c[nH]2)cc1` [Compound 30], the pIC50 in experiment [1] is 6.28.
For `O=C(Nc1ccc(-c2cnco2)cc1)c1cc(C(=O)c2ccccc2N2CCCCC2)c[nH]1` [Compound 132], the pIC50 in experiment [1] was 7.85.
Still for that read-out and setting: the figure for `O=C(Nc1ccc(-c2cncs2)cc1)c1cc2c(-c3ccc(C(F)(F)F)cc3C(F)(F)F)nccc2[nH]1` [Compound 48] is less than 4.30; for `O=C(Nc1ccc(S(=O)(=O)Nc2ccccc2)cc1)c1cc(C(=O)c2ccccc2C(F)(F)F)c[nH]1` [Compound 123] it is 6.93; for `O=C(Nc1ccc(-c2cnc(N3CCOCC3)s2)cc1)c1cc(C(=O)c2ccccc2C(F)(F)F)c[nH]1` [Compound 38] it is 7.77.
For `CS(=O)(=O)c1ccccc1-c1nccc2[nH]c(C(=O)Nc3ccc(-c4ccncc4)cc3)cc12` [Compound 73], the pIC50 in experiment [1] was 5.20.
The same measure, in the same setting: the figure for `CCN1CCN(c2ccccc2C(=O)c2c[nH]c(C(=O)Nc3ccc(-c4cnco4)cc3)c2)CC1` [Compound 135] is 5.55.
Take `COC(=O)c1cccc(-c2ccc(NC(=O)c3cc(C(=O)c4ccccc4C(F)(F)F)c[nH]3)cc2)c1` [Compound 108]: the pIC50 in experiment [1] is 6.74.
As for `CN1CCN(c2ncc(-c3ccc(NC(=O)c4cc(C(=O)c5ccccc5Br)c[nH]4)cc3)o2)CC1` [Compound 80], in experiment [1], the pIC50 was 6.46.
Consider `CS(=O)(=O)c1ccccc1-c1cccc2[nH]c(C(=O)Nc3ccc(-c4cncs4)cc3)cc12` [Compound 69], for which, in experiment [1], the pIC50 was 6.43.
